# Source: patent US20040006077A1, “Thiazine and oxazine derivatives as MMP-13 inhibitors” (priority 2002, published 2004)
# Experiments:
# Format in all cases: biochemical
# [1] = target: T1, catalytic domain of human MMP-13 (Homo sapiens, UniProt P45452); assay: Inhibition of proteolysis of thioester peptide substrate by MMP-13; settings: peptide substrate Ac-Pro-Leu-Gly-thioester-Leu-Leu-Gly-OEt 100 μM, pH 7.0, absorbance at 405 nm
# T1 construct: 2.5 nM of the catalytic domain of human MMP-13
# Experimental: (§1) The inhibitory activity of the compounds of formula (I) according to the invention with respect to matrix metalloprotease-13 is evaluated by testing the ability of the compounds of the invention to inhibit the proteolysis of a peptide substrate with MMP-13.
# (§2) The peptide substrate used in the test is the following peptide: Ac-Pro-Leu-Gly-thioester-Leu-Leu-Gly-OEt.
# The inhibitory activity of a compound of formula (I) according to the invention is expressed as the IC50 value, which is the concentration of inhibitor for which an inhibition of 50% of the activity of the matrix metalloprotease under consideration is observed.
# To carry out this test, a reaction medium of 100 μt volume is prepared, containing: 50 mM of HEPES buffer, 10 mM of CaCl2 and 1 mM of 5,5′-dithiobis-(2-nitrobenzoic acid) (DTNB), and 100 μM of substrate, the pH being adjusted to 7.0.
# Increasing concentrations of the inhibitory compound present in a 2.0% DMSO solution and 2.5 nM of the catalytic domain of human MMP-13 are added to the test samples.
# (§3) The concentrations of inhibitors present in the test samples range from 100 μM to 0.5 nM. The measurement of the proteolysis of the substrate peptide is monitored by measuring the absorbance at 405 nm using a spectrophotometer for reading microplates, at the laboratory temperature, the measurements being carried out continuously for 10 to 15 minutes.
# The IC50 values are calculated from a curve in which the percentage of the catalytic activity relative to the control is represented on the X-axis and the concentration of inhibitor is represented on the Y-axis.
# [2] = target: T2, MMP-1 (Homo sapiens, UniProt P03956); assay: MMP-13 test adapted to MMP-1
# T2 sequence (P03956 100-469): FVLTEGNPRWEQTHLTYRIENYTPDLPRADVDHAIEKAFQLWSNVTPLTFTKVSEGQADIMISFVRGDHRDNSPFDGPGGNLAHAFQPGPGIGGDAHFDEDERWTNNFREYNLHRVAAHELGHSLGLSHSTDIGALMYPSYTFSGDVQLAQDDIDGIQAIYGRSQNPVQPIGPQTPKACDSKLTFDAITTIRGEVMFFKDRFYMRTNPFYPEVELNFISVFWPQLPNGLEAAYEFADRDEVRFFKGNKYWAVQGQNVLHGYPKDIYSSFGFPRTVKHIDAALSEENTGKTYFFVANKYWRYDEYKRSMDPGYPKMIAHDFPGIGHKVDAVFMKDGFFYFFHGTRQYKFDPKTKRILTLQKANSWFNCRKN
# [3] = target: MMP-3 (Homo sapiens, UniProt P08254); assay: MMP-13 test adapted to MMP-3
# Experimental: as §1, §2
# (§4) The inhibitory activity of a compound of formula (I) according to the invention is expressed as the IC50 value, which is the concentration of inhibitor for which an inhibition of 50% of the activity of the matrix metalloprotease under consideration is observed. […]
# as §3
# (§5) The IC50 values are calculated from a curve in which the percentage of the catalytic activity relative to the control is represented on the X-axis and the concentration of inhibitor is represented on the Y-axis. […]
# [4] = target: T3, MMP-7 (Homo sapiens, UniProt P09237); assay: MMP-13 test adapted to MMP-7
# T3 sequence (P09237 95-267): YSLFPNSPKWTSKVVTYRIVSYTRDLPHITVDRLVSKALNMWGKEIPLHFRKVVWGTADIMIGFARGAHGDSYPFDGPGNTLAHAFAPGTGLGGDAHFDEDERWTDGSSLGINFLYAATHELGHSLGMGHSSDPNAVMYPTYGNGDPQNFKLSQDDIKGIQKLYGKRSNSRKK
# Experimental: as §1, §2, §4, §3, §5
# Sequence of MMP-3 (P08254 100-477, species assumed): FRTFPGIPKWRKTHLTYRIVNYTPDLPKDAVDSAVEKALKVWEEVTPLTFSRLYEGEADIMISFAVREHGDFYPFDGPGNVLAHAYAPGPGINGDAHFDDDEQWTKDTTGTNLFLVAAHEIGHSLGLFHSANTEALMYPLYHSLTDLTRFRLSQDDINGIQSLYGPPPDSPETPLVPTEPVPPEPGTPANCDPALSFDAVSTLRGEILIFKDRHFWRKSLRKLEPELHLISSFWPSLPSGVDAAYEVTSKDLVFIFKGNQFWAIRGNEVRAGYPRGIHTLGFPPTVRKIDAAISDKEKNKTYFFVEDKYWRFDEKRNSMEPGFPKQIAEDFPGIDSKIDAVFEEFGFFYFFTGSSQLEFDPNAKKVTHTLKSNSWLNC
smiles,measurement,setting,value
"COc1ccc(CNC(=O)c2ccc3sc(=O)n(Cc4ccccc4)c(=O)c3c2)cc1 [Example 1, 3-Benzyl-2,4-dioxo-3,4-dihydro-2H-benz[e][1,3]thiazine-6-carboxylic acid 4-methoxy benzylamide]",IC50,[1],0.037 µM
same,IC50,[2],30 µM
same,IC50,[3],18 µM
same,IC50,[4],30 µM
COc1ccc(CNC(=O)c2ccc3oc(=O)n(Cc4ccc(OC)cc4)c(=O)c3c2)cc1 [Example 2],IC50,[1],0.063 µM
"O=C(O)c1ccc(Cn2c(=O)sc3ccc(C#CCc4ccccc4)cc3c2=O)cc1 [Example 3, 4-[2,4-Dioxo-6-(3-phenyl-prop-1ynyl)-4H-1,3-benzothiazin-3-ylmethyl]-benzoic acid]",IC50,[1],0.0012 µM
